According to patent US20250176599A1, “FLAVOR COMPOSITION AND FOOD AND BEVERAGE” (TAKASAGO INTERNATIONAL CORPORATION, priority 2021, published 2025):

What was measured:
[1] = Sensory evaluation of aqueous solution I containing (E)-2-nonenal 1 ppb: off-flavor intensity and masking component intensity; settings: average panel score
How it was run: (§1)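 Nootkatone was added to ion-exchanged water spiked with the degradation component, and eight experienced panelists scored the samples. Off-flavor was rated relative to anchors: unmasked spiked solution = 4, plain water = 0. Masking-component intensity was rated absolutely on a 0–4 scale.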

[2] = Sensory evaluation of aqueous solution II containing (E)-2-octenal 10 ppb: off-flavor intensity and masking component intensity; settings: average panel score
How it was run: as §1

[3] = Sensory evaluation of aqueous solution III containing 1-octen-3-one 1 ppb: off-flavor intensity and masking component intensity; settings: average panel score
How it was run: as §1

[4] = Sensory evaluation of aqueous solution IV containing 1,5-octadien-3-one 100 ppt: off-flavor intensity and masking component intensity; settings: aqueous solution IV, average panel score
How it was run: as §1

[5] = Sensory evaluation of aqueous solution V containing 1-octen-3-ol 10 ppb: off-flavor intensity and masking component intensity; settings: average panel score
How it was run: as §1

[6] = Sensory evaluation of aqueous solution VI containing 1,5-octadien-3-ol 10 ppb: off-flavor intensity and masking component intensity; settings: aqueous solution VI, average panel score
How it was run: as §1

[7] = Sensory evaluation of degradation component-added soymilk I ((E)-2-nonenal 5 ppb); settings: average panel score
Procedure: (§2) To commercially available soymilk (“Delicious Unadjusted Soymilk” manufactured by Kikkoman Corporation), each degradation component was added to prepare degradation component-added soymilks at the concentrations listed in Table 23. To these degradation component-added soymilks, 1,4-dioxacycloheptadecan-5,17-dione was added at the concentrations listed in Table 23 to confirm the intensity of the off-flavor (masking effect) and the intensity of the masking components (impact on the flavor of the soymilk itself) for each sample.
(§3) Eight experienced panelists were selected to conduct a sensory evaluation similar to that of Example 1. […]

[8] = Sensory evaluation of degradation component-added soymilk II (1-octen-3-ol 500 ppb); settings: average panel score
Procedure: as §2, §3

[9] = Overall conclusion of the sensory evaluation across aqueous solutions I to VI
How it was run: as §1

[10] = Overall conclusion of the sensory evaluation across soymilks I and II
Procedure: as §2
Eight experienced panelists were selected to conduct a sensory evaluation similar to that of Example 1.
The same method as in Example 20 was used to confirm the intensity of the off-flavor (masking effect) derived from unsaturated fatty acids by α-methyl ionone and the intensity of the masking components (impact on the flavor of the soymilk itself).
The same method as in Example 20 was used to confirm the intensity of the off-flavor (masking effect) derived from unsaturated fatty acids by menthyl 3-hydroxybutyrate and the intensity of the masking components (impact on the flavor of the soymilk itself).

## CC(O)CC(=O)OC1CC(C)CCC1C(C)C (stereo not drawn) [menthyl 3-hydroxybutyrate]
[1]; 1 ppb added
  Masking Component Intensity: 0.6
  Off-Flavor Intensity: 3.1
[1]; 1 ppm added
  Masking Component Intensity: 1.9
  Off-Flavor Intensity: 2.5
[1]; 10 ppb added
  Masking Component Intensity: 0.9
  Off-Flavor Intensity: 3.0
[1]; 10 ppm added
  Masking Component Intensity: 2.5
  Off-Flavor Intensity: 1.9
[1]; 10 ppt added
  Masking Component Intensity: 0.1
  Off-Flavor Intensity: 3.6
[1]; 50 ppm added
  Masking Component Intensity: 3.5
  Off-Flavor Intensity: 1.4
[1]; 100 ppb added
  Masking Component Intensity: 1.5
  Off-Flavor Intensity: 2.9
[1]; 100 ppt added
  Masking Component Intensity: 0.3
  Off-Flavor Intensity: 3.4
[2]; 1 ppb added
  Masking Component Intensity: 0.6
  Off-Flavor Intensity: 3.0
[2]; 1 ppm added
  Masking Component Intensity: 1.9
  Off-Flavor Intensity: 2.0
[2]; 10 ppb added
  Masking Component Intensity: 0.9
  Off-Flavor Intensity: 2.8
[2]; 10 ppm added
  Masking Component Intensity: 2.1
  Off-Flavor Intensity: 1.9
[2]; 10 ppt added
  Masking Component Intensity: 0.4
  Off-Flavor Intensity: 3.4
[2]; 50 ppm added
  Masking Component Intensity: 3.5
  Off-Flavor Intensity: 1.1
[2]; 100 ppb added
  Masking Component Intensity: 1.4
  Off-Flavor Intensity: 2.3
[2]; 100 ppt added
  Masking Component Intensity: 0.4
  Off-Flavor Intensity: 3.4
[3]; 1 ppb added
  Masking Component Intensity: 0.6
  Off-Flavor Intensity: 3.4
[3]; 1 ppm added
  Masking Component Intensity: 1.8
  Off-Flavor Intensity: 2.4
[3]; 10 ppb added
  Masking Component Intensity: 1.0
  Off-Flavor Intensity: 2.9
[3]; 10 ppm added
  Masking Component Intensity: 2.6
  Off-Flavor Intensity: 2.0
[3]; 10 ppt added
  Masking Component Intensity: 0.3
  Off-Flavor Intensity: 3.6
[3]; 50 ppm added
  Masking Component Intensity: 3.5
  Off-Flavor Intensity: 1.8
[3]; 100 ppb added
  Masking Component Intensity: 1.5
  Off-Flavor Intensity: 2.9
[3]; 100 ppt added
  Masking Component Intensity: 0.3
  Off-Flavor Intensity: 3.6
[4]; 1 ppb added
  Masking Component Intensity: 0.1
  Off-Flavor Intensity: 3.8
[4]; 1 ppm added
  Masking Component Intensity: 1.1
  Off-Flavor Intensity: 3.0
[4]; 5 ppm added
  Masking Component Intensity: 1.8
  Off-Flavor Intensity: 2.5
[4]; 10 ppb added
  Masking Component Intensity: 0.6
  Off-Flavor Intensity: 3.4
[4]; 10 ppm added
  Masking Component Intensity: 2.6
  Off-Flavor Intensity: 2.5
[4]; 50 ppm added
  Masking Component Intensity: 3.1
  Off-Flavor Intensity: 2.0
[4]; 100 ppb added
  Masking Component Intensity: 0.8
  Off-Flavor Intensity: 3.1
[4]; 100 ppt added
  Masking Component Intensity: 0.1
  Off-Flavor Intensity: 3.8
[5]; 1 ppb added
  Masking Component Intensity: 0.4
  Off-Flavor Intensity: 3.3
[5]; 1 ppm added
  Masking Component Intensity: 1.0
  Off-Flavor Intensity: 2.5
[5]; 5 ppm added
  Masking Component Intensity: 1.6
  Off-Flavor Intensity: 2.4
[5]; 10 ppb added
  Masking Component Intensity: 0.8
  Off-Flavor Intensity: 2.9
[5]; 10 ppm added
  Masking Component Intensity: 2.4
  Off-Flavor Intensity: 2.0
[5]; 50 ppm added
  Masking Component Intensity: 3.5
  Off-Flavor Intensity: 1.5
[5]; 100 ppb added
  Masking Component Intensity: 1.0
  Off-Flavor Intensity: 2.8
[5]; 100 ppt added
  Masking Component Intensity: 0.3
  Off-Flavor Intensity: 3.5
[6]; 1 ppb added
  Masking Component Intensity: 0.3
  Off-Flavor Intensity: 2.9
[6]; 1 ppm added
  Masking Component Intensity: 1.4
  Off-Flavor Intensity: 2.1
[6]; 5 ppm added
  Masking Component Intensity: 1.8
  Off-Flavor Intensity: 1.8
[6]; 10 ppb added
  Masking Component Intensity: 0.6
  Off-Flavor Intensity: 2.9
[6]; 10 ppm added
  Masking Component Intensity: 2.5
  Off-Flavor Intensity: 1.6
[6]; 50 ppm added
  Masking Component Intensity: 3.6
  Off-Flavor Intensity: 1.3
[6]; 100 ppb added
  Masking Component Intensity: 0.9
  Off-Flavor Intensity: 2.5
[6]; 100 ppt added
  Masking Component Intensity: 0.1
  Off-Flavor Intensity: 3.0
[7]; 1 ppm added
  Masking Component Intensity: 0.4
  Off-Flavor Intensity: 2.4
[7]; 10 ppm added
  Masking Component Intensity: 1.1
  Off-Flavor Intensity: 1.9
[7]; 50 ppm added
  Masking Component Intensity: 2.3
  Off-Flavor Intensity: 1.5
[7]; 100 ppb added
  Masking Component Intensity: 0.1
  Off-Flavor Intensity: 2.8
[7]; 100 ppm added
  Masking Component Intensity: 3.1
  Off-Flavor Intensity: 1.3
[8]; 1 ppm added
  Masking Component Intensity: 0.5
  Off-Flavor Intensity: 2.5
[8]; 10 ppm added
  Masking Component Intensity: 1.3
  Off-Flavor Intensity: 1.9
[8]; 50 ppm added
  Masking Component Intensity: 1.9
  Off-Flavor Intensity: 1.4
[8]; 100 ppb added
  Masking Component Intensity: 0.4
  Off-Flavor Intensity: 2.9
[8]; 100 ppm added
  Masking Component Intensity: 2.9
  Off-Flavor Intensity: 0.8
[9]
  concentration that masks the off-flavor and does not affect the flavor of the food and/or beverage itself, lower limit: ≥ 10 ppt
  concentration that masks the off-flavor and does not affect the flavor of the food and/or beverage itself, upper limit: ≤ 10 ppm
[10]
  concentration that masks the off-flavor and does not affect the flavor of the soymilk itself, lower limit: ≥ 100 ppb
  concentration that masks the off-flavor and does not affect the flavor of the soymilk itself, upper limit: ≤ 100 ppm
